Legend:
C57BL/6J male mice [1] = test: Experimental Example 1: mice fed high-fat feed with added amino acids for eight weeks; format: in vivo; settings: compared with HF feed, 2.0% single amino acid or 1.0%+1.0% in high-fat feed; for body weight of mice at autopsy: FIG. 1; for weight of fat tissue of mice at autopsy (accumulation of body fat): FIG. 2
Protocol: Forty C57BL/6J male mice (eight-weeks old, available from CLEA Japan, Inc.) were fed with CRF-1 powder (available from Oriental Yeast Co., Ltd.) during one-week acclimation period. The mice were then subjected to an experiment at the beginning of nine-weeks old. […] The weight of feed intake was individually measured, and the amount of energy intake was calculated from the energy value corresponding to 1 g of each experimental feed. After the eight-weeks' experiment by feeding with the respective experimental diets, the mice were subjected to autopsy to determine their body weight, and total fat weight including the peri-epididymal fat, peri-renal fat, mesenteric fat, and subcutaneous fat around the femurs.

C57BL/6J male mice [2] = test: Reference Example: mice fed high-fat feed with 3.0% L-threonine for eight weeks; format: in vivo
Protocol: Twenty C57BL/6J male mice (eight-weeks old, available from CLEA Japan, Inc.) were fed with CRF-1 powder (available from Oriental Yeast Co., Ltd.) during one-week acclimation period. The mice were then subjected to an experiment at the beginning of nine-weeks old.
The weight of feed intake by the individual mouse was measured, and the amount of energy intake (i.e., kilocalories) was calculated according to the feed from the energy value corresponding to 1 g of each experimental feed. After the eight-weeks' experiment by feeding with the respective experimental diets, the mice were subjected to autopsy to determine their body weight, and the weight of fat tissue sincluding the peri-epididymal fat, peri-renal fat, and mesenteric fat.

| Structure (SMILES) | body weight of mice at autopsy (C57BL/6J male mice [1]) | weight of fat tissue of mice at autopsy (accumulation of body fat) (C57BL/6J male mice [1]) | amount of energy intake during the feeding period (C57BL/6J male mice [2]; 3.0% L-threonine, FIG. 15) | body weight of mice at autopsy (C57BL/6J male mice [2]; compared with HF feed, 3.0% L-threonine (group 3T), FIG. 13) | weight of fat tissue at autopsy (C57BL/6J male mice [2]; compared with HF feed, 3.0% L-threonine (group 3T), FIG. 14) |
| --- | --- | --- | --- | --- | --- |
| C[C@@H](O)[C@H](N)C(=O)O [threonine, L-threonine] | not decreased | not decreased | not decreased | decreased | decreased |
| CC(C)C[C@H](N)C(=O)O [leucine, L-leucine] | not decreased | not decreased | – | – | – |

Source: patent US20080058264A1, “AMINO-ACID CONTAINING COMPOSITION FOR INHIBITING ACCUMULATION OF FAT” (AJINOMOTO CO. INC, priority 2006, published 2008)
